From paper PMC13316043, “Structural basis of NSD2 degradation via targeted recruitment of SCF-FBXO22” (Nature Communications, 2026)

Tested on: FBXO22-NSD2 PWWP1 ternary complex
Assay: Size-exclusion chromatography to monitor ternary complex formation
Type: binding, human
Method: Formation of the SCF^FBXO22-UNC10088-NSD2 PWWP1 and SCF^FBXO22-UNC10415667-NSD2 PWWP1 ternary complexes was performed by incubating SKP1-FBXO22, CUL1-RBX1, NSD2 PWWP1, and UNC10088 or UNC10415667 at a 1:1:1:1 molar ratio for 4 h on ice. The SCF^FBXO22-UNC10088-NSD2 PWWP1-BACH1 BTB ternary complex was formed by incubating SKP1-FBXO22, CUL1-RBX1, NSD2 PWWP1, UNC10088, and BACH1 BTB at a 1:1:1:1:1.5 molar ratio for 1 h on ice. The incubated sample was loaded onto a Superdex 200 Increase SD200 column (Cytiva), equilibrated with 20 mM HEPES pH 8, 200 mM NaCl, 1 mM DTT, for size-exclusion chromatography, and fractions containing all subunits of the SCF^FBXO22-Degrader-NSD2 PWWP1 complex were pooled and concentrated. The SCF^FBXO22-UNC10088-NSD2 PWWP1, SCF^FBXO22-UNC10415667-NSD2 PWWP1, and SCF^FBXO22-UNC10088-NSD2 PWWP1-BACH1 BTB complexes were concentrated to 33 µM, 10.9 µM, and 4.1 µM, respectively, and flash frozen. […] In contrast, only the PWWP1 and BTB domains of NSD2 and BACH1, respectively, were used.
FBXO22 WT and variants were incubated on ice with NSD2 PWWP1 and either UNC10088 or UNC10415667 at 5 µM. After 1 h, the samples were centrifuged at 16,060 x g for 10 min at 4 °C. Each sample was examined for C326- and compound-dependent complex formation by comparing the SEC chromatograms and Coomassie-stained SDS-PAGE gels. […] These experiments were performed using a Superdex 200 Increase SD200 column (Cytiva) and 20 mM HEPES pH 8, 200 mM NaCl, 1 mM DTT.

With `O=C1COc2cc(C(=O)N(Cc3ccc(C(=O)Nc4ccc5c(c4)CCN(C(=O)CCCCC(O)S(=O)(=O)O)C5)cc3)C3CC3)ccc2N1` (centres unmarked) [UNC10088] the “ternary complex formation between FBXO22 and NSD2 PWWP1 by SEC” value was “co-migrated together”.
With `O=Cc1ccc(C(=O)N2CCc3cc(NC(=O)c4ccc(CN(C(=O)c5ccc6c(c5)OCC(=O)N6)C5CC5)cc4)ccc3C2)cc1` [UNC10415667] the “ternary complex formation between FBXO22 and NSD2 PWWP1 by SEC” value was “stable complex”.
